In PubChem BioAssay (NCI):
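A five-concentration, 48-hour dose response in 96-well plates underlies each endpoint, interpolated linearly between surrounding concentrations. Abbreviation: GI50, concentration required for 50% inhibition of growth. The concentration for full growth arrest is given as TGI.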

These molecules were tested on U251 CNS (assay: DTP human tumour cell line panel, 48 h).

SMILES | GI50 | TGI
COc1cc(-c2nc3sccn3c2-c2ccnc(NCCNS(=O)(=O)c3ccc(F)cc3)n2)ccc1F | 4.23 µM | > 100 µM
C#Cc1cccc(Nc2nc3cc([N+](=O)[O-])ccc3nc2Nc2ccc(O)cc2)c1 | 1.8 µM | 3.71 µM
CN(C)CC(O)c1ccc(/C=C/c2ccc(Cl)cc2)cc1 (stereo not drawn) | 1.53 µM | 2.86 µM
Cc1nnc2ccnn2c1C | > 100 µM | > 100 µM
CCOC(=O)C1=C(C)N(NC(=O)Nc2ccccc2)C2(N)N(NC(=O)Nc3ccccc3)C(C)=C(C(=O)OCC)C12C(=O)OCC (stereo not drawn) |  | > 100 µM
Cn1cc(-c2cc3c(N4CCN(c5ncc([C@@](C)(N)c6ccc(F)cc6)cn5)CC4)ncnn3c2)cn1 | 3.67 µM | > 100 µM
O=C(O)CSc1n[nH]c(-c2ccccc2O)n1 |  | > 100 µM
CN(C)C=Nc1nc(=O)n(C2CCC(CO)O2)cc1F (stereo not drawn) |  | > 100 µM
COc1cc2c(cc1OC)-c1cc(OC)c(OC)cc1C(CN(C)C)C2 (stereo not drawn) | > 10 µM | > 10 µM
O=c1[nH]c(-c2ccccc2)nc2cc(Cl)ccc12 |  | > 100 µM
O=C(NC1CCCCC1)NS(=O)(=O)c1ccc(N2N=C3c4ccccc4CC3C2c2ccc(Cl)cc2)cc1 (stereo not drawn) | 10.1 µM | 21.7 µM
CCCOc1nc(N)c2cnn(C3CCCCO3)c2n1 (stereo not drawn) |  | > 100 µM
C/C(CN1C(=O)c2ccccc2C1=O)=N\NS(=O)(=O)c1ccc(Cl)cc1 |  | > 100 µM
COc1ccc(/C=C/COC(C)=O)cc1OC |  | > 100 µM
CN(C)CC1CCC/C1=N/OC(=O)c1ccccc1 (stereo not drawn) |  | > 100 µM
CC(C)[C@@H]1NC(=O)[C@]2(C)CSC(=N2)c2ccnc(c2)CNC(=O)C[C@@H](/C=C/CCS)OC1=O | 0.107 µM | 0.73 µM
Fc1cc(-c2nnc3n2N=C(c2ccc(Cl)cc2)CS3)c(Cl)cc1Cl | 11.4 µM | 28.4 µM
O=C(NC1C=CCC2C(=O)N(c3ccccc3)C(=O)C12)OCc1ccccc1 (stereo not drawn) |  | > 100 µM
CN1C(=O)C(=O)N2c3ccc(Cl)cc3C3(c4ccccc4)N=CC12O3 (stereo not drawn) |  | 30.1 µM
NCCNCCNCCN | > 100 µM | > 100 µM
COc1ccc(C(c2cc(OC)c(OC)c(OC)c2)n2cncn2)cc1O (stereo not drawn) | 0.446 µM | > 100 µM
N#CCCC[Si]12OCCN(CCO1)CCO2 |  | > 100 µM
CN1CCN(c2ccc(Nc3ncc(Cl)c(NC[C@@H]4CCCO4)n3)cc2)CC1 | 2 µM | 49.1 µM

Each molecule was assayed on MOLT-4 leukemia (assay: DTP human tumour cell line panel, 48 h).

SMILES | GI50 | TGI
C#Cc1cccc(Nc2nc3cc([N+](=O)[O-])ccc3nc2Nc2ccc(O)cc2)c1 | 1.2 µM | 4.17 µM
Cc1nnc2ccnn2c1C | > 100 µM | > 100 µM
Cn1cc(-c2cc3c(N4CCN(c5ncc([C@@](C)(N)c6ccc(F)cc6)cn5)CC4)ncnn3c2)cn1 | 2.52 µM | > 100 µM
O=C(O)CSc1n[nH]c(-c2ccccc2O)n1 |  | > 100 µM
CN(C)C=Nc1nc(=O)n(C2CCC(CO)O2)cc1F (stereo not drawn) |  | > 100 µM
COc1cc2c(cc1OC)-c1cc(OC)c(OC)cc1C(CN(C)C)C2 (stereo not drawn) | > 10 µM | > 10 µM
O=c1[nH]c(-c2ccccc2)nc2cc(Cl)ccc12 |  | > 100 µM
O=C(NC1CCCCC1)NS(=O)(=O)c1ccc(N2N=C3c4ccccc4CC3C2c2ccc(Cl)cc2)cc1 (stereo not drawn) | 4.04 µM | 19.4 µM
CCCOc1nc(N)c2cnn(C3CCCCO3)c2n1 (stereo not drawn) |  | > 100 µM
C/C(CN1C(=O)c2ccccc2C1=O)=N\NS(=O)(=O)c1ccc(Cl)cc1 |  | > 100 µM
C[C@@H]1CC[C@H]2C(C)(C)[C@H]3C[C@@]12CC[C@@]3(C)O |  | > 100 µM
COc1ccc(/C=C/COC(C)=O)cc1OC |  | > 100 µM
Cc1ccc(NC2=C3CCCCC3OC2=O)cc1 (stereo not drawn) | 19.1 µM | 86 µM
CN(C)CC1CCC/C1=N/OC(=O)c1ccccc1 (stereo not drawn) |  | > 100 µM
CC(C)[C@@H]1NC(=O)[C@]2(C)CSC(=N2)c2ccnc(c2)CNC(=O)C[C@@H](/C=C/CCS)OC1=O | 0.128 µM | > 100 µM
O=C(NC1C=CCC2C(=O)N(c3ccccc3)C(=O)C12)OCc1ccccc1 (stereo not drawn) |  | > 100 µM
CN1C(=O)C(=O)N2c3ccc(Cl)cc3C3(c4ccccc4)N=CC12O3 (stereo not drawn) |  | 7.56 µM
NCCNCCNCCN | > 100 µM | > 100 µM
COc1ccc(C(c2cc(OC)c(OC)c(OC)c2)n2cncn2)cc1O (stereo not drawn) | 0.51 µM | > 100 µM
N#CCCC[Si]12OCCN(CCO1)CCO2 |  | > 100 µM

These molecules were tested on LOX IMVI melanoma (assay: DTP human tumour cell line panel, 48 h).

SMILES | GI50 | TGI
COc1cc(-c2nc3sccn3c2-c2ccnc(NCCNS(=O)(=O)c3ccc(F)cc3)n2)ccc1F | 1.65 µM | > 100 µM
C#Cc1cccc(Nc2nc3cc([N+](=O)[O-])ccc3nc2Nc2ccc(O)cc2)c1 | 1.38 µM | 2.69 µM
CN(C)CC(O)c1ccc(/C=C/c2ccc(Cl)cc2)cc1 (stereo not drawn) | 1.63 µM | 2.98 µM
Cc1nnc2ccnn2c1C | > 100 µM | > 100 µM
CCOC(=O)C1=C(C)N(NC(=O)Nc2ccccc2)C2(N)N(NC(=O)Nc3ccccc3)C(C)=C(C(=O)OCC)C12C(=O)OCC (stereo not drawn) |  | > 100 µM
Cn1cc(-c2cc3c(N4CCN(c5ncc([C@@](C)(N)c6ccc(F)cc6)cn5)CC4)ncnn3c2)cn1 | 3.27 µM | > 100 µM
O=C(O)CSc1n[nH]c(-c2ccccc2O)n1 |  | > 100 µM
CN(C)C=Nc1nc(=O)n(C2CCC(CO)O2)cc1F (stereo not drawn) |  | > 100 µM
COc1cc2c(cc1OC)-c1cc(OC)c(OC)cc1C(CN(C)C)C2 (stereo not drawn) | > 10 µM | > 10 µM
O=C(NC1CCCCC1)NS(=O)(=O)c1ccc(N2N=C3c4ccccc4CC3C2c2ccc(Cl)cc2)cc1 (stereo not drawn) | 10.3 µM | 21.9 µM
C[C@@H]1CC[C@H]2C(C)(C)[C@H]3C[C@@]12CC[C@@]3(C)O |  | > 100 µM
CN(C)CC1CCC/C1=N/OC(=O)c1ccccc1 (stereo not drawn) |  | > 100 µM
CC(C)[C@@H]1NC(=O)[C@]2(C)CSC(=N2)c2ccnc(c2)CNC(=O)C[C@@H](/C=C/CCS)OC1=O | 0.208 µM | 0.588 µM
Fc1cc(-c2nnc3n2N=C(c2ccc(Cl)cc2)CS3)c(Cl)cc1Cl | 1.77 µM | 3.86 µM
COC1=CC(=O)C(C2(OC(C)C)OC(=O)C(Cl)=C2Cl)=CC1=O (stereo not drawn) |  | > 100 µM
O=C(NC1C=CCC2C(=O)N(c3ccccc3)C(=O)C12)OCc1ccccc1 (stereo not drawn) |  | > 100 µM
NCCNCCNCCN | > 100 µM | > 100 µM
COc1ccc(C(c2cc(OC)c(OC)c(OC)c2)n2cncn2)cc1O (stereo not drawn) | 0.523 µM | > 100 µM
CN1CCN(c2ccc(Nc3ncc(Cl)c(NC[C@@H]4CCCO4)n3)cc2)CC1 | 0.826 µM | 6.83 µM

The molecules below were run on COLO 205 colon (assay: DTP human tumour cell line panel, 48 h).

SMILES | GI50 | TGI
COc1cc(-c2nc3sccn3c2-c2ccnc(NCCNS(=O)(=O)c3ccc(F)cc3)n2)ccc1F | 1.98 µM | > 100 µM
C#Cc1cccc(Nc2nc3cc([N+](=O)[O-])ccc3nc2Nc2ccc(O)cc2)c1 | 1.9 µM | 3.71 µM
CN(C)CC(O)c1ccc(/C=C/c2ccc(Cl)cc2)cc1 (stereo not drawn) | 1.71 µM | 3.17 µM
Cc1nnc2ccnn2c1C | > 100 µM | > 100 µM
CCOC(=O)C1=C(C)N(NC(=O)Nc2ccccc2)C2(N)N(NC(=O)Nc3ccccc3)C(C)=C(C(=O)OCC)C12C(=O)OCC (stereo not drawn) |  | 3.25 µM
CN(C)C=Nc1nc(=O)n(C2CCC(CO)O2)cc1F (stereo not drawn) |  | > 100 µM
O=C(NC1CCCCC1)NS(=O)(=O)c1ccc(N2N=C3c4ccccc4CC3C2c2ccc(Cl)cc2)cc1 (stereo not drawn) | 11.7 µM | 34 µM
CCCOc1nc(N)c2cnn(C3CCCCO3)c2n1 (stereo not drawn) |  | > 100 µM
C/C(CN1C(=O)c2ccccc2C1=O)=N\NS(=O)(=O)c1ccc(Cl)cc1 |  | > 100 µM
C[C@@H]1CC[C@H]2C(C)(C)[C@H]3C[C@@]12CC[C@@]3(C)O |  | > 100 µM
COc1ccc(/C=C/COC(C)=O)cc1OC |  | > 100 µM
Cc1ccc(NC2=C3CCCCC3OC2=O)cc1 (stereo not drawn) | 78.1 µM | > 100 µM
CN(C)CC1CCC/C1=N/OC(=O)c1ccccc1 (stereo not drawn) |  | > 100 µM
CC(C)[C@@H]1NC(=O)[C@]2(C)CSC(=N2)c2ccnc(c2)CNC(=O)C[C@@H](/C=C/CCS)OC1=O | 0.717 µM | 2.41 µM
Fc1cc(-c2nnc3n2N=C(c2ccc(Cl)cc2)CS3)c(Cl)cc1Cl | 7.08 µM | 49.1 µM
COC1=CC(=O)C(C2(OC(C)C)OC(=O)C(Cl)=C2Cl)=CC1=O (stereo not drawn) |  | > 100 µM
O=C(NC1C=CCC2C(=O)N(c3ccccc3)C(=O)C12)OCc1ccccc1 (stereo not drawn) |  | > 100 µM
CN1C(=O)C(=O)N2c3ccc(Cl)cc3C3(c4ccccc4)N=CC12O3 (stereo not drawn) |  | 15 µM
NCCNCCNCCN | > 100 µM | > 100 µM
COc1ccc(C(c2cc(OC)c(OC)c(OC)c2)n2cncn2)cc1O (stereo not drawn) | 0.332 µM | 1.54 µM
N#CCCC[Si]12OCCN(CCO1)CCO2 |  | > 100 µM
CN1CCN(c2ccc(Nc3ncc(Cl)c(NC[C@@H]4CCCO4)n3)cc2)CC1 | 0.547 µM | 2.96 µM

These molecules were tested on UACC-62 melanoma (assay: DTP human tumour cell line panel, 48 h).

SMILES | GI50 | TGI
COc1cc(-c2nc3sccn3c2-c2ccnc(NCCNS(=O)(=O)c3ccc(F)cc3)n2)ccc1F | 0.688 µM | 2.55 µM
C#Cc1cccc(Nc2nc3cc([N+](=O)[O-])ccc3nc2Nc2ccc(O)cc2)c1 | 1.62 µM | 2.99 µM
CN(C)CC(O)c1ccc(/C=C/c2ccc(Cl)cc2)cc1 (stereo not drawn) | 1.62 µM | 3.02 µM
Cc1nnc2ccnn2c1C | > 100 µM | > 100 µM
CCOC(=O)C1=C(C)N(NC(=O)Nc2ccccc2)C2(N)N(NC(=O)Nc3ccccc3)C(C)=C(C(=O)OCC)C12C(=O)OCC (stereo not drawn) |  | > 100 µM
Cn1cc(-c2cc3c(N4CCN(c5ncc([C@@](C)(N)c6ccc(F)cc6)cn5)CC4)ncnn3c2)cn1 | 5.23 µM | > 100 µM
O=C(O)CSc1n[nH]c(-c2ccccc2O)n1 |  | > 100 µM
COc1cc2c(cc1OC)-c1cc(OC)c(OC)cc1C(CN(C)C)C2 (stereo not drawn) | > 10 µM | > 10 µM
O=c1[nH]c(-c2ccccc2)nc2cc(Cl)ccc12 |  | > 100 µM
O=C(NC1CCCCC1)NS(=O)(=O)c1ccc(N2N=C3c4ccccc4CC3C2c2ccc(Cl)cc2)cc1 (stereo not drawn) | 14.9 µM | 32.7 µM
CCCOc1nc(N)c2cnn(C3CCCCO3)c2n1 (stereo not drawn) |  | > 100 µM
C/C(CN1C(=O)c2ccccc2C1=O)=N\NS(=O)(=O)c1ccc(Cl)cc1 |  | > 100 µM
C[C@@H]1CC[C@H]2C(C)(C)[C@H]3C[C@@]12CC[C@@]3(C)O |  | > 100 µM
COc1ccc(/C=C/COC(C)=O)cc1OC |  | > 100 µM
Cc1ccc(NC2=C3CCCCC3OC2=O)cc1 (stereo not drawn) | 47 µM | > 100 µM
CN(C)CC1CCC/C1=N/OC(=O)c1ccccc1 (stereo not drawn) |  | > 100 µM
CC(C)[C@@H]1NC(=O)[C@]2(C)CSC(=N2)c2ccnc(c2)CNC(=O)C[C@@H](/C=C/CCS)OC1=O | 0.0746 µM | 0.552 µM
Fc1cc(-c2nnc3n2N=C(c2ccc(Cl)cc2)CS3)c(Cl)cc1Cl | 4.3 µM | 14.9 µM
COC1=CC(=O)C(C2(OC(C)C)OC(=O)C(Cl)=C2Cl)=CC1=O (stereo not drawn) |  | > 100 µM
O=C(NC1C=CCC2C(=O)N(c3ccccc3)C(=O)C12)OCc1ccccc1 (stereo not drawn) |  | > 100 µM
CN1C(=O)C(=O)N2c3ccc(Cl)cc3C3(c4ccccc4)N=CC12O3 (stereo not drawn) |  | 15.3 µM
NCCNCCNCCN | > 100 µM | > 100 µM
COc1ccc(C(c2cc(OC)c(OC)c(OC)c2)n2cncn2)cc1O (stereo not drawn) | 0.55 µM | > 100 µM
N#CCCC[Si]12OCCN(CCO1)CCO2 |  | > 100 µM
CN1CCN(c2ccc(Nc3ncc(Cl)c(NC[C@@H]4CCCO4)n3)cc2)CC1 | 1.95 µM | 10.5 µM

These molecules were tested on HT29 colon (assay: DTP human tumour cell line panel, 48 h).

SMILES | GI50 | TGI
COc1cc(-c2nc3sccn3c2-c2ccnc(NCCNS(=O)(=O)c3ccc(F)cc3)n2)ccc1F | 1.64 µM | > 100 µM
